# Assay results reported in patent publication US20180338980A1, “AROMATIC SULFONAMIDE DERIVATIVES” (BAYER PHARMA AKTIENGESELLSCHAFT, priority 2015, published 2018).
# Columns and labels:
# P2X4 [1] = molecular target: T1, P2X4 (Homo sapiens, UniProt Q99571); test: Assay B: human P2X4 receptor cell line, mitochondrial photina luminescence (agonist Bz-ATP at EC50); format: cell-based; set-up: host or cells: HEK 293 (recombinant, constitutively expressing; with mitochondrial photina in Assay B); details: HEK human P2X4 cell line, photina luminescence, agonist Bz-ATP at EC50, average; for Emax: read-out: human P2X4 Assay B avg Efficacy
# T1 sequence (Q99571 1-388): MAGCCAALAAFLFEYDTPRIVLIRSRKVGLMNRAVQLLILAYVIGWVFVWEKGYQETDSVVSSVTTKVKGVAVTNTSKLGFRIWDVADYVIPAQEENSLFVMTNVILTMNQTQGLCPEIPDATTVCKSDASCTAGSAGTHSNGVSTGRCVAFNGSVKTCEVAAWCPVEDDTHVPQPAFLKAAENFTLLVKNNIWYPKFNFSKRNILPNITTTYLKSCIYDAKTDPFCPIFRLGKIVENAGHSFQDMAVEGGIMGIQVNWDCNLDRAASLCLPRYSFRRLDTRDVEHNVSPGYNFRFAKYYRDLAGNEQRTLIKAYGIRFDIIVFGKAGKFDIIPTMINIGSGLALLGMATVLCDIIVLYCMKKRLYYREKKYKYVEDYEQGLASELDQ
# Summary of the method: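 Bz-ATP at its EC50 activates human P2X4 stably expressed in a cell line that also carries the calcium-sensitive photoprotein mitochondrial photina (coelenterazine cofactor). Light emitted on calcium influx is measured straight away in a luminometer. Reduced luminescence indicates antagonism.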
# P2X4 [2] = molecular target: T1, P2X4; test: Assay A: human P2X4 receptor cell line, FLIPR calcium assay (Fluo-8, agonist Bz-ATP at EC80); format: cell-based; set-up: host or cells: HEK 293 (recombinant, constitutively expressing; with mitochondrial photina in Assay B); details: HEK human P2X4 cells, Fluo-8 FLIPR; for IC50: Bz-ATP at EC80, average values; for Emax: percentage of maximal inhibition, read-out: human P2X4 Assay A avg Efficacy
# Description: A fluorescent imaging plate reader (FLEX/FLIPR station; Molecular Devices) was used to monitor intracellular calcium levels using the calcium-chelating dye Fluo-8 (Molecular Probes). […] Cells expressing purinergic receptors human P2X4 (HEK human P2X4: PerkinElmer, Product No.: AX-015-PCF) were plated at a density of 20,000 cells/well in poly-D-lysine-coated 384-well plates approximately 20 hours before beginning the assay. On the day of the assay, the medium was removed and 30 μl of dye buffer (Hank's balanced salt solution, 10 mM HEPES, 1.8 mM CaCl2), 1 mM MgCl2, 2 mM probenecid, 5 mM D-glucose monohydrate, 5 μM Fluo-8, pH=7.4) was added for 30 min at […] and 5% CO2. The antagonist in probenecid buffer (Hank's balanced salt solution, 10 mM HEPES, 1.8 mM CaCl2, 1 mM MgCl2, 2 mM probenecid, 5 mM D-glucose monohydrate, pH=7.4) was added in a volume of 10 μl and allowed to incubate for 30 min at room temperature. The final assay DMSO concentration is 0.5%. The agonist, Bz-ATP, is added in a volume of 10 μl at a concentration representing the EC80 value. The fluorescence was measured for an interval of 120 sec at 2 sec intervals and analyzed based on the increase in peak relative fluorescence units (RFU) compared to the basal fluorescence. Peak fluorescence was used to determine the response to agonist obtained at each concentration of antagonist by the following equation:
# % Response=100*(RFU(drug)−RFU(control))/(RFU(DMSO)−RFU(control))
# The compounds were tested in triplicates per plate and mean values were plotted in Excel XLFit to determine IC50 values, percentage of maximal inhibition and the Hill coefficients.
Structure (SMILES),IC50 (P2X4 [1]) [nM],Emax (P2X4 [1]) [%],IC50 (P2X4 [2]) [nM],Emax (P2X4 [2]) [%]
"NS(=O)(=O)c1cc(NC(=O)Cc2ccccc2Cl)ccc1Oc1ccccc1F [Example 010, 2-(2-Chlorophenyl)-N-[4-(2-fluorophenoxy)-3-sulfamoylphenyl]acetamide]",73,76,27,90
"NS(=O)(=O)c1cc(NC(=O)Cc2ccccc2Cl)ccc1Oc1cccc(F)c1 [Example 011, 2-(2-Chlorophenyl)-N-[4-(3-fluorophenoxy)-3-sulfamoylphenyl]acetamide]",43,67,41,85
"CS(=O)(=O)c1cccc(Oc2ccc(NC(=O)Cc3ccccc3Cl)cc2S(N)(=O)=O)c1 [Example 016, 2-(2-Chlorophenyl)-N-{4-[3-(methylsulfonyl)phenoxy]-3-sulfamoylphenyl}acetamide]",112,72,96,81
"Cc1cccc(Oc2ccc(NC(=O)Cc3ccccc3Cl)cc2S(N)(=O)=O)c1 [Example 018, 2-(2-Chlorophenyl)-N-[4-(3-methylphenoxy)-3-sulfamoylphenyl]acetamide]",47,70,9,93
"NS(=O)(=O)c1cc(NC(=O)Cc2ccccc2Cl)ccc1Oc1cccc(-n2cnnc2)c1 [Example 020, 2-(2-Chlorophenyl)-N-{3-sulfamoyl-4-[3-(4H-1,2,4-triazol-4-yl)phenoxy]phenyl}acetamide]",,96,,90
"COc1cccc(Oc2ccc(NC(=O)Cc3ccccc3Cl)cc2S(N)(=O)=O)c1 [Example 022, 2-(2-Chlorophenyl)-N-[4-(3-methoxyphenoxy)-3-sulfamoylphenyl]acetamide]",,54,,87
"NS(=O)(=O)c1cc(NC(=O)Cc2ccccc2Cl)ccc1Oc1cccc(OC(F)F)c1 [Example 024, 2-(2-Chlorophenyl)-N-{4-[3-(difluoromethoxy)phenoxy]-3-sulfamoylphenyl}acetamide]",32,57,114,82
"NS(=O)(=O)c1cc(NC(=O)Cc2ccccc2Cl)ccc1Oc1cccc(N2CCOCC2)c1 [Example 026, 2-(2-Chlorophenyl)-N-{4-[3-(morpholin-4-yl)phenoxy]-3-sulfamoylphenyl}acetamide]",82,71,21,95
"NS(=O)(=O)c1cc(NC(=O)Cc2ccccc2Cl)ccc1Oc1cccnc1 [Example 028, 2-(2-Chlorophenyl)-N-[4-(pyridin-3-yloxy)-3-sulfamoylphenyl]acetamide]",,79,,75
"NS(=O)(=O)c1cc(NC(=O)Cc2ccccc2Cl)ccc1Oc1cccc(C(F)F)c1 [Example 031, 2-(2-Chlorophenyl)-N-{4-[3-(difluoromethyl)phenoxy]-3-sulfamoylphenyl}acetamide]",122,71,24,76
"COc1ccccc1Oc1ccc(NC(=O)Cc2ccccc2Cl)cc1S(N)(=O)=O [Example 032, 2-(2-Chlorophenyl)-N-[4-(2-methoxyphenoxy)-3-sulfamoylphenyl]acetamide]",57,82,14,100
"NS(=O)(=O)c1cc(NC(=O)Cc2ccccc2Cl)ccc1Oc1cccc(C(=O)NC2CC2)c1 [Example 037, 3-(4-{[(2-Chlorophenyl)acetyl]amino}-2-sulfamoylphenoxy)-N-cyclopropylbenzamide]",188,56,63,70
"NS(=O)(=O)c1cc(NC(=O)Cc2ccccc2Cl)ccc1Oc1cc(Cl)ccn1 [Example 039, 2-(2-chlorophenyl)-N-{4-[(4-chloropyridin-2-yl)oxy]-3-sulfamoylphenyl}acetamide]",140,65,7,89
"NS(=O)(=O)c1cc(NC(=O)Cc2ccccc2Cl)ccc1Oc1ccc(N2CCCC2=O)cc1 [Example 043, 2-(2-Chlorophenyl)-N-{4-[4-(2-oxopyrrolidin-1-yl)phenoxy]-3-sulfamoylphenyl}acetamide]",671,68,515,85
"N#Cc1cc(Oc2ccc(NC(=O)Cc3ccccc3Cl)cc2S(N)(=O)=O)ccc1F [Example 047, 2-(2-Chlorophenyl)-N-[4-(3-cyano-4-fluorophenoxy)-3-sulfamoylphenyl]acetamide]",862,57,7,69

# The next lines start with the values.
IC50 (P2X4 [1]) [nM],Emax (P2X4 [1]) [%],IC50 (P2X4 [2]) [nM],Emax (P2X4 [2]) [%],Structure (SMILES)
112,87,5,94,"NS(=O)(=O)c1cc(NC(=O)Cc2ccccc2Cl)ccc1Oc1cccc(N2CCCC2=O)c1 [Example 050, 2-(2-Chlorophenyl)-N-{4-[3-(2-oxopyrrolidin-1-yl)phenoxy]-3-sulfamoylphenyl}acetamide]"
124,83,20,87,"NS(=O)(=O)c1cc(NC(=O)Cc2ccccc2Cl)ccc1Oc1cccc(N2CCOC2=O)c1 [Example 051, 2-(2-Chlorophenyl)-N-{4-[3-(2-oxo-1,3-oxazolidin-3-yl)phenoxy]-3-sulfamoylphenyl}acetamide]"
,66,,85,"NS(=O)(=O)c1cc(NC(=O)Cc2ccccc2Cl)ccc1Oc1cccc(C(=O)N2CCOCC2)c1 [Example 052, 2-(2-Chlorophenyl)-N-{4-[3-(morpholin-4-ylcarbonyl)phenoxy]-3-sulfamoylphenyl}acetamide]"
859,84,197,90,"CC1(COc2ccc(NC(=O)Cc3ccccc3Cl)cc2S(N)(=O)=O)CCOCC1 [Example 053, 2-(2-Chlorophenyl)-N-{4-[(4-methyltetrahydro-2H-pyran-4-yl)methoxy]-3-sulfamoylphenyl}acetamide]"
578,84,68,94,"NS(=O)(=O)c1cc(NC(=O)Cc2ccccc2Cl)ccc1OCC1(F)CCOCC1 [Example 054, 2-(2-chlorophenyl)-N-{4-[(4-fluorotetrahydro-2H-pyran-4-yl)methoxy]-3-sulfamoylphenyl}acetamide]"
75,70,45,85,"NS(=O)(=O)c1cc(NC(=O)Cc2ccccc2Cl)ccc1Oc1cccc(Br)c1 [Example 059, N-[4-(3-Bromophenoxy)-3-sulfamoylphenyl]-2-(2-chlorophenyl)acetamide]"
147,72,53,88,"Cc1nc(-c2cccc(Oc3ccc(NC(=O)Cc4ccccc4Cl)cc3S(N)(=O)=O)c2)cs1 [Example 061, 2-(2-Chlorophenyl)-N-{4-[3-(2-methyl-1,3-thiazol-4-yl)phenoxy]-3-sulfamoylphenyl}acetamide]"
455,70,560,95,"NS(=O)(=O)c1cc(NC(=O)Cc2ccccc2Cl)ccc1Oc1ccc(C2CCC(=O)N2)cc1 (stereo not drawn) [Example 062, 2-(2-Chlorophenyl)-N-{4-[4-(5-oxopyrrolidin-2-yl)phenoxy]-3-sulfamoylphenyl}acetamide]"
